Measurements from ChEMBL document CHEMBL4417621, “Methods to identify tas2r modulators” (2013).

How the values were obtained:
Format in all cases: functional, cell-based
[1] = molecular target: T1, Taste receptor type 2 member 1 (Homo sapiens) (UniProt Q9NYW7); assay: Activation of full-length human TAS2R1 expressed in HEK293T/Galpha16-gustducin 44 cells assessed as effect on calcium flux by measuring deltaF/F0 ratio at 1.5625 mM by Fluo-4 dye based FLIPR assay
T1 sequence (whole entry): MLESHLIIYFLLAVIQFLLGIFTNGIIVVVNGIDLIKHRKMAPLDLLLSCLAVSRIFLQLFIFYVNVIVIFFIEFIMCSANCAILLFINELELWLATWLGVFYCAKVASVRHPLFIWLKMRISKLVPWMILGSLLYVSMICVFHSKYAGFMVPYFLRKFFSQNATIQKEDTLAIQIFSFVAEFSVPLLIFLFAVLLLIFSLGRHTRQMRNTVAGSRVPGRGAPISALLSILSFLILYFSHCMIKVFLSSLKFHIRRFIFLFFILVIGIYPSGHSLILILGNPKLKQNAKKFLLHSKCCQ

[2] = molecular target: T2, Taste receptor type 2 member 46 (Homo sapiens) (UniProt P59540); assay: Activation of full-length human TAS2R46 expressed in HEK293T/Galpha16-gustducin 44 cells assessed as effect on calcium flux by measuring deltaF/F0 ratio at 1.5625 mM by Fluo-4 dye based FLIPR assay
T2 sequence (whole entry): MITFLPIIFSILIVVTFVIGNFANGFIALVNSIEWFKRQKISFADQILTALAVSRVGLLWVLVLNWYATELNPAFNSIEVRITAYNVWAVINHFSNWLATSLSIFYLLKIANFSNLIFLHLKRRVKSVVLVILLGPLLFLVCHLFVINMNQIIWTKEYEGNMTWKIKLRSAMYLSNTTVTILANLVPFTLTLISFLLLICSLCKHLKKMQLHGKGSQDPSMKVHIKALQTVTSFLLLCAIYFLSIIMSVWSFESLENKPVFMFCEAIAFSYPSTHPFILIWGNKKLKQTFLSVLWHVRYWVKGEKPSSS

[3] = molecular target: T2, Taste receptor type 2 member 46 (Homo sapiens); assay: Activation of full-length human TAS2R46 expressed in HEK293T/Galpha16-gustducin 44 cells assessed as effect on calcium flux by measuring deltaF/F0 ratio at 12.5 mM by Fluo-4 dye based FLIPR assay
[4] = molecular target: T1, Taste receptor type 2 member 1 (Homo sapiens); assay: Activation of full-length human TAS2R1 expressed in HEK293T/Galpha16-gustducin 44 cells assessed as effect on calcium flux by measuring deltaF/F0 ratio at 100 mM by Fluo-4 dye based FLIPR assay
[5] = molecular target: T2, Taste receptor type 2 member 46 (Homo sapiens); assay: Activation of full-length human TAS2R46 expressed in HEK293T/Galpha16-gustducin 44 cells assessed as effect on calcium flux by measuring deltaF/F0 ratio at 3.125 mM by Fluo-4 dye based FLIPR assay
[6] = molecular target: T3, Taste receptor type 2 member 31 (Homo sapiens) (UniProt P59538); assay: Activation of full-length human TAS2R44 expressed in HEK293T/Galpha16-gustducin 44 cells assessed as effect on calcium flux by measuring deltaF/F0 ratio at 3.125 mM by Fluo-4 dye based FLIPR assay (reference value: […] +/ - 0.001)
T3 sequence (whole entry): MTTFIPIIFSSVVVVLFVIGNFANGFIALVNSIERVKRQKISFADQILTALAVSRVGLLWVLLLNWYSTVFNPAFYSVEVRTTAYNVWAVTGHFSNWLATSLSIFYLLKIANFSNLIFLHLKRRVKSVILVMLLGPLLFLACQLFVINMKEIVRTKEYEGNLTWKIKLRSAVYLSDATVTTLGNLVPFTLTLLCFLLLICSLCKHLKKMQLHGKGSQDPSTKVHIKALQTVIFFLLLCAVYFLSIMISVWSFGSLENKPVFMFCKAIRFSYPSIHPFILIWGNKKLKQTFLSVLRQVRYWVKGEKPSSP

[7] = molecular target: T4, Taste receptor type 2 member 10 (Homo sapiens) (UniProt Q9NYW0); assay: Activation of full-length human TAS2R10 expressed in HEK293T/Galpha16-gustducin 44 cells assessed as effect on calcium flux by measuring deltaF/F0 ratio at 3.125 mM by Fluo-4 dye based FLIPR assay
T4 sequence (whole entry): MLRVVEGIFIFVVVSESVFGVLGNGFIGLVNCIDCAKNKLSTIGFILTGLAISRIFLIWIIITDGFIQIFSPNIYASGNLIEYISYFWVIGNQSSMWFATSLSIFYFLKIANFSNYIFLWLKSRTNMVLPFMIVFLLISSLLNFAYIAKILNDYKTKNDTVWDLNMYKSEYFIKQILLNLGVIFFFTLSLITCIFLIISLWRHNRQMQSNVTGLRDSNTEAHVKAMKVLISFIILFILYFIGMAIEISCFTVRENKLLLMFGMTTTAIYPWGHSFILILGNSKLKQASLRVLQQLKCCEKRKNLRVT

[8] = molecular target: T4, Taste receptor type 2 member 10 (Homo sapiens); assay: Activation of full-length human TAS2R10 expressed in HEK293T/Galpha16-gustducin 44 cells assessed as effect on calcium flux by measuring deltaF/F0 ratio by Fluo-4 dye based FLIPR assay
[9] = molecular target: T4, Taste receptor type 2 member 10 (Homo sapiens); assay: Activation of full-length human TAS2R10 expressed in HEK293T/Galpha16-gustducin 44 cells assessed as effect on calcium flux by measuring deltaF/F0 ratio at 12.5 mM by Fluo-4 dye based FLIPR assay
[10] = molecular target: T4, Taste receptor type 2 member 10 (Homo sapiens); assay: Activation of full-length human TAS2R10 expressed in HEK293T/Galpha16-gustducin 44 cells assessed as effect on calcium flux by measuring deltaF/F0 ratio at 6.25 mM by Fluo-4 dye based FLIPR assay
[11] = molecular target: T1, Taste receptor type 2 member 1 (Homo sapiens); assay: Activation of full-length human TAS2R1 expressed in HEK293T/Galpha16-gustducin 44 cells assessed as effect on calcium flux by measuring deltaF/F0 ratio at 12.5 mM by Fluo-4 dye based FLIPR assay
[12] = molecular target: T2, Taste receptor type 2 member 46 (Homo sapiens); assay: Activation of full-length human TAS2R46 expressed in HEK293T/Galpha16-gustducin 44 cells assessed as effect on calcium flux by measuring deltaF/F0 ratio at 50 mM by Fluo-4 dye based FLIPR assay
[13] = molecular target: T3, Taste receptor type 2 member 31 (Homo sapiens); assay: Activation of full-length human TAS2R44 expressed in HEK293T/Galpha16-gustducin 44 cells assessed as effect on calcium flux by measuring deltaF/F0 ratio at 6.25 mM by Fluo-4 dye based FLIPR assay (reference value: 0.017 +/ - 0.009)
[14] = molecular target: T3, Taste receptor type 2 member 31 (Homo sapiens); assay: Activation of full-length human TAS2R44 expressed in HEK293T/Galpha16-gustducin 44 cells assessed as effect on calcium flux by measuring deltaF/F0 ratio at 12.5 mM by Fluo-4 dye based FLIPR assay (reference value: […] +/ - 0.014)
[15] = molecular target: T1, Taste receptor type 2 member 1 (Homo sapiens); assay: Activation of full-length human TAS2R1 expressed in HEK293T/Galpha16-gustducin 44 cells assessed as effect on calcium flux by measuring deltaF/F0 ratio at 0.3906 mM by Fluo-4 dye based FLIPR assay
[16] = molecular target: T2, Taste receptor type 2 member 46 (Homo sapiens); assay: Activation of full-length human TAS2R46 expressed in HEK293T/Galpha16-gustducin 44 cells assessed as effect on calcium flux by measuring deltaF/F0 ratio at 100 mM by Fluo-4 dye based FLIPR assay

Ratio [1]: 0.047
Ratio [2]: 0.035
Ratio [3]: 0.075
Ratio [4]: 0.518
Ratio [5]: 0.036
Ratio [6]: 0.043
Ratio [7]: 0.053
Activity [8]: Dose-dependent effect
Ratio [9]: 0.059
Ratio [10]: 0.053
Ratio [11]: 0.072
Ratio [12]: 0.171
Ratio [13]: 0.059
Ratio [14]: 0.109
Ratio [15]: 0.052
Ratio [16]: 0.258
Compound: OC[C@H]1O[C@H](O[C@]2(CCl)O[C@H](CCl)[C@@H](O)[C@@H]2O)[C@H](O)[C@@H](O)[C@H]1Cl [SUCRALOSE]
